Read-outs that look alike come from different tables or passages of the source.
Columns and labels:
HeLa cells [1] = assay: Subcellular localisation by confocal laser-scanning microscopy; type: cell-based, human; details: 1 × 10^−5 M, 1 h
Procedure: Cells, grown on eight-well chamber slides (Nunc), were incubated in the dark at 37°C with 1 × 10^−5 M ADPM01 for 1 h. The medium was removed and the cells then treated with 250 nM MitoTracker Green (Molecular Probes) or 100 nM ER Tracker Blue (Molecular Probes) for 25 min. Prior to visualisation, excess probe was washed off by rinsing in PBS four times and cells were fixed in 3.7% formaldehyde/PBS. Cells were mounted as above and image analysis was performed using a LSM510 META confocal laser-scanning microscope (Zeiss) equipped with an × 40 numerical aperture 1.0 objective, with a pinhole of 100 μm in diameter being used to capture each image at a resolution of 512 × 512 pixels. MitoTracker Green was excited by a 488 nm argon laser and ER Tracker Blue was excited by a UV laser (364 nm), while ADPM01 was excited by a 543 nm helium neon laser. For simultaneous detection of MitoTracker Green and ADPM01, a 560 nm long pass filter was used in channel 1 (red) for ADPM01, while a 505–530 nm band pass filter was used in channel 2 (green) for MitoTracker Green. For dual detection of ER Tracker Blue and ADPM01, a long pass filter of 560 nm was used in channel 1 (red) for ADPM01 and a 385–470 nm band pass filter was used in channel 2 (blue) for ER Tracker Blue. […]

HeLa cells [2] = assay: MTT cell viability assay under hypoxic conditions (1% oxygen); type: cell-based, human; details: hypoxia 1% oxygen; for EC50: Homo sapiens
Procedure: (§1) Cells were exposed to low oxygen conditions in a hypoxia chamber (Coy Labs). Exponentially growing cells plus media were equilibrated in the hypoxia chamber for 24 h. The hypoxia chamber consisted of an airtight glove box, with the atmosphere continuously monitored by an oxygen analyser. An oxygen concentration of 1% was maintained throughout the chamber, with the balance comprised of 5% CO2, nitrogen and water vapour from a humidified chamber.
(§2) Cells were seeded in 96-well flat-bottomed microtitre plates (5000 cells well^−1) and incubated at 37°C in a 5% CO2 incubator for 24 h. Cells were then incubated with varying concentrations of photosensitiser (1 × 10^−9 to 1 × 10^−4 M) in the dark for 3 h at 37°C. The ADPM compound-laden medium was then removed, the cells were washed with PBS and fresh culture medium was added to each well. This was followed by light irradiation with a broad-spectrum red light source (600–750 nm) via a Waldmann PDT1200L light delivery system. For this study, fluences (light exposures) of either 8 or 16 J cm^−2, at a dose rate of 80 mW cm^−2, were used. Following irradiation, the cells were incubated for a further 48 h before being assessed for cell viability by a standard MTT assay (Sigma). The subsequent colour change produced by viable cells was quantified using a plate reader (VICTOR^2 1420 multilabel HTS counter, Wallac). […] The dark toxicity of each compound was also assessed.
(§3) For cell viability experiments performed under hypoxic conditions, cells were cultured in a hypoxia chamber as described above. Varying concentrations of ADPM compounds were made using medium equilibrated within the hypoxic environment. After 3 h, the medium containing photosensitiser was removed, the cells were washed with PBS to remove excess compound and fresh, equilibrated medium was added to each well. This was followed by light irradiation under hypoxic conditions with the broad-spectrum red light source as before.
(§4) Prism ([…]) was used to graph the data obtained from the MTT assays and the uptake/clearance experiments. This program allows nonlinear regression analysis and the generation of sigmoidal dose–response curves. Prism also automatically calculates EC50 values. Statistical analysis was performed using the ANOVA test (Prism). Significant differences were detected using the Bonferroni multiple comparison test. P-values <0.05 were considered statistically significant.

MRC5 cells [3] = assay: as above; type: cell-based, human; details: MRC5, hypoxia 1% oxygen; for EC50: Homo sapiens
Procedure: as §1, §2, §3, §4

human tumour cell lines = assay: Light-induced toxicity (MTT) assays over a broad range of cell lines; type: cell-based; details: for EC50: Homo sapiens, read-out: EC50 values, range between the different cell lines; for EC50 values, light-induced toxicity (in words): broad range of human tumour cell lines
Procedure: All cell lines unless otherwise stated were obtained from the American Type Culture Collection. HeLa, MRC5, HT-1080, MDA-MB-231, MCF-7 and T47-D cells were cultured in minimum essential medium (MEM) supplemented with 10% (v v^−1) foetal calf serum (FCS), 1% (v v^−1) non-essential amino acids, 50 U ml^−1 penicillin, 50 μg ml^−1 streptomycin, 20 mM HEPES and 1% (v v^−1) L-glutamine (Gibco-BRL). SW480, SW620 (obtained from Professor D Croke, Royal College of Surgeons, Dublin), A2780 and A2780cp70 cells (Obtained from Professor R Brown, Cancer Research UK, Beatson Laboratories, Glasgow) were cultured in RPMI-1640 medium plus the above-mentioned supplements. All cells were maintained in 5% CO2 (v v^−1) and 21% O2 (v v^−1) at 37°C unless otherwise stated.
as §2, §4

HeLa cells [4] = assay: Cellular uptake and clearance (fluorescence microscopy); type: cell-based, human
Procedure: (§5) Cells were seeded at 30 000 cells well^−1 in chamber slides and allowed to adhere for 24 h. For the uptake studies, ADPM01 (1 × 10^−5 M) was then added to each chamber and incubated at 37°C in the dark. Following appropriate incubation periods (5 min–6 h), the cells were washed four times with media to remove all free photosensitisers. The cells were then fixed with 3.7% formaldehyde/PBS for 15 min at 37°C, after which the cells were washed twice with PBS. Mounting fluid (Vectashield) and a coverslip were then placed on each slide. […] In this case, the cells were fixed at various time points (15 min – 24 h) after removal of the drug. The slides were then viewed using an Axio fluorescent microscope (Zeiss). A DAPI filter (Band pass 356) was used to accurately count the number of cells in each field of view and a rhodamine filter (Long pass 590) was used to quantify fluorescence from ADPM01. LabWorks version 4.0 (Bioimaging Systems) was used to calculate the average fluorescence intensity of ADPM01 per cell.
as §4

MRC5 cells [5] = assay: as above; type: cell-based, human; details: MRC-5, 1 × 10^−5 M for 3 h, then drug removed
Procedure: as §5, §4

[6] = 0 J cm^−2, read-out: EC50 (M) (dark)
[7] = 8 J cm^−2, read-out: EC50 (M) (8 J cm^−2)
[8] = 16 J cm^−2, read-out: EC50 (M) (16 J cm^−2)
[9] = 8 J cm^−2, all cell lines of Table 1
[10] = 16 J cm^−2, all cell lines of Table 1

SMILES | co-localisation with endoplasmic reticulum (ER Tracker Blue) (HeLa cells [1]) | EC50 (HeLa cells [2]; [6]) [M] | EC50 (HeLa cells [2]; [7]) [M] | EC50 (HeLa cells [2]; [8]) [M] | efficacy (light-induced activity) at 1% oxygen level vs normoxia (HeLa cells [2]) | EC50 (MRC5 cells [3]; [6]) [M] | EC50 (MRC5 cells [3]; [7]) [M] | EC50 (MRC5 cells [3]; [8]) [M] | efficacy (light-induced activity) at 1% oxygen level vs normoxia (MRC5 cells [3]) | EC50 (human tumour cell lines; [9]) [µM] | EC50 (human tumour cell lines; [10]) [µM] | EC50 values, light-induced toxicity (in words) (human tumour cell lines) | retention at 3 h post-withdrawal (clearance) (HeLa cells [4]; 1 × 10^−5 M for 3 h, then drug removed) [%] | cellular uptake, accumulated by 3 h (HeLa cells [4]; 1 × 10^−5 M, 37°C in the dark, 6 h period) [%] | retention 3 h post-withdrawal (clearance) (MRC5 cells [5]) [%]
F[B-]1(F)n2c(-c3ccccc3)cc(-c3ccccc3)c2N=C2C(c3ccccc3)=CC(c3ccccc3)=[N+]21 [ADPM01] | more striking co-localisation | > 0.0001 | > 0.0001 | > 0.0001 | completely ablated | > 0.0001 | > 0.0001 | > 0.0001 | completely ablated | 2.8 to 34 | 0.26 to 22 | micro-molar range | 42 | > 90 | 74
COc1ccc(C2=[N+]3C(=Nc4c(-c5ccccc5)c(Br)c(-c5ccc(OC)cc5)n4[B-]3(F)F)C(c3ccccc3)=C2Br)cc1 [ADPM06] | – | > 0.0001 | 6.1e-06 | 1.5e-06 | only a partial reduction in light-induced activity | > 0.0001 | 7.1e-06 | 1.6e-06 | only a partial reduction in light-induced activity | 0.037 to 5.4 | 0.014 to 0.63 | nano-molar range | – | – | –
